Our source for the EC50, inhibition of growth and inhibition values is paper PMC3684613 (PLoS ONE, 2013).

The test system of experiment [1] is P. falciparum 3D7. Briefly: DAPI stain fluorescent high content imaging assay, P. falciparum 3D7 (confirmatory screen, Avery). The conditions noted are these: Plasmodium falciparum; for EC50: 3D7, read-out: EC50_nM; for inhibition of growth at 2 µM: 3D7, read-out: percent_inh @ 2 uM; for inhibition of growth at 5 µM: 3D7, read-out: percent_inh @ 5 uM.
The subject of experiment [2] is P. falciparum 3D7. Set-up: method as in ChEMBL-NTD. The conditions noted are these: ref ChEMBL-NTD, cited from earlier work.
[3] abbreviates: values follow the order of the source (GNF; GSK; StJude).
The mark [4] stands for this setting: original screening data, source (GSK, GNF, StJude), several values separated by ';' in order of sources.

Structures are written as SMILES. Like-named read-outs stand apart in the source and are kept apart here.

As to `CCN(CC)CCNc1ccnc2cc(Cl)ccc12` [MMV006087], the EC50 is 58.1 nM in the experiment with P. falciparum 3D7 [1] and 7.16 nM with P. falciparum 3D7 [2] (source GNF (GNF-Pf id)).
Regarding `c1ccc(CNc2nc(Nc3ccccc3)nc3ccccc23)cc1` [MMV006169], in the experiment on P. falciparum 3D7 [1], the EC50 was 776 nM and the inhibition of growth at 2 µM turned out to be 95%. In addition, in the experiment with P. falciparum 3D7 [2] (setting [3]), the EC50 was 158 nM.
For the compound `CN1CCN(c2ccc(Nc3c4ccccc4nc4ccccc34)cc2)CC1` [MMV006172], the EC50 was 142 nM with P. falciparum 3D7 [1], 56.7 nM in the experiment with P. falciparum 3D7 [2] (source GNF (GNF-Pf id)) and 645 nM in the experiment with P. falciparum 3D7 [2] (source GSK (TCMDC id)). Besides, the inhibition of growth at 5 µM in the experiment with P. falciparum 3D7 [1] stood at 97%.
Regarding `O=C(NCc1ccco1)C1CCN(S(=O)(=O)c2ccc(Cl)cc2)CC1` [MMV006188], the EC50 is 890 nM in the experiment with P. falciparum 3D7 [1] and 514 nM in the experiment with P. falciparum 3D7 [2] (source GNF). In addition, the inhibition of growth at 5 µM in the experiment on P. falciparum 3D7 [1] was found to be 94%.
For the compound `Cc1cc(NCCN2CCCCC2)c2ccc3ccccc3c2n1` [MMV006203], the EC50 in the experiment with P. falciparum 3D7 [1] is 300 nM; with P. falciparum 3D7 [2] (source GNF (GNF-Pf id)), 44.1 nM. Besides, the inhibition of growth at 5 µM with P. falciparum 3D7 [1] amounted to 99%.
For the compound `CCOC(=O)c1cnc2c(C)cccc2c1Nc1ccc(C(C)=O)cc1` [MMV006250], in the experiment on P. falciparum 3D7 [1], the EC50 was determined as 314 nM and the inhibition of growth at 5 µM came out at 94%. In the experiment with P. falciparum 3D7 [2] (source GNF (GNF-Pf ids)), the EC50 was 119 nM.
For `CCc1c(C)c(=N)c2ccccc2n1C` [MMV006278], the results for the EC50 in the experiment with P. falciparum 3D7 [1] and in the experiment with P. falciparum 3D7 [2] (source GNF (GNF-Pf id)) were 378 nM and 701 nM, respectively. In the experiment on P. falciparum 3D7 [1], the inhibition of growth at 5 µM came out at 76%.
On to `CCN(CC)CCNc1ccnc2cc3ccccc3cc12` [MMV006303], for which the results for the EC50 in the experiment with P. falciparum 3D7 [1] and in the experiment on P. falciparum 3D7 [2] (setting [3]) were 391 nM and 28.6 nM, respectively.
For the compound `CN(C)c1ccc(C=Cc2nc(=O)c3ccccc3o2)cc1` [MMV006309], in the experiment with P. falciparum 3D7 [1], the EC50 stood at 51.5 nM and the inhibition of growth at 5 µM was 96%. In addition, the EC50 in the experiment with P. falciparum 3D7 [2] (source GSK (TCMDC id)) is 44.6 nM.
Regarding `Cc1cc(Nc2cccc(F)c2)nc(NCc2ccccc2)n1` [MMV006319], in the experiment on P. falciparum 3D7 [1], the EC50 was determined as 662 nM and the inhibition of growth at 2 µM came out at 97%. The EC50 in the experiment with P. falciparum 3D7 [2] (setting [4]) was 72.2 nM.
As to `O=C1c2ccccc2C2=Nc3ccccc3SC(c3cccc(F)c3)C12` (centres unmarked) [MMV006389], the EC50 in the experiment with P. falciparum 3D7 [1] was 414 nM; in the experiment with P. falciparum 3D7 [2] (source GNF (GNF-Pf ids)), 86.7 nM. The inhibition of growth at 5 µM in the experiment on P. falciparum 3D7 [1] was found to be 94%.
With `COc1cc(OC)c(N(C)C(=O)c2cc3c(s2)-c2ccccc2S(=O)(=O)C3)cc1Cl` [MMV006427], the results for the EC50 in the experiment on P. falciparum 3D7 [1] and in the experiment with P. falciparum 3D7 [2] (source GNF (GNF-Pf id)) were 78.2 nM and 113 nM, respectively. In the experiment on P. falciparum 3D7 [1], the inhibition of growth at 5 µM stood at 100%.
For the compound `Cc1cc(NC(=O)C2c3ccccc3C(=O)N(CC(C)C)C2c2cccs2)no1` (centres unmarked) [MMV006429], in the experiment on P. falciparum 3D7 [1], the EC50 was determined as 32.8 nM and the inhibition of growth at 5 µM amounted to 100%. For the same compound, the EC50 in the experiment with P. falciparum 3D7 [2] (source GNF (GNF-Pf id)) was 85.6 nM.
Turning to `CCCN(CCC)CC(O)COc1ccccc1C(=O)Nc1ccccc1` (centres unmarked) [MMV006455], the EC50 was 196 nM with P. falciparum 3D7 [1], 365 nM with P. falciparum 3D7 [2] (source GNF (GNF-Pf id)) and 799 nM in the experiment with P. falciparum 3D7 [2] (source GSK (TCMDC id)). Moreover, in the experiment with P. falciparum 3D7 [1], the inhibition of growth at 5 µM was 98%.
Turning to `CCOC(=O)c1ccc2nc(-c3ccccc3)cc(O)c2c1` [MMV006457], in the experiment on P. falciparum 3D7 [1], the EC50 came to 118 nM and the inhibition of growth at 5 µM was found to be 96%. Besides, the EC50 in the experiment with P. falciparum 3D7 [2] (source GNF (GNF-Pf id)) was 549 nM.
Consider `c1ccc2c(NCCc3c[nH]c4ccccc34)c3ccccc3nc2c1` [MMV006513], for which, in the experiment with P. falciparum 3D7 [1], the EC50 is 304 nM and the inhibition of growth at 5 µM is 97%. In the experiment on P. falciparum 3D7 [2] (source GNF (GNF-Pf ids)), the EC50 was 86 nM.
For the compound `CCOc1ccc2nc(C)cc(Nc3ccc(Br)cc3)c2c1` [MMV006522], in the experiment with P. falciparum 3D7 [1], the EC50 turned out to be 480 nM and the inhibition of growth at 2 µM is 96%. Moreover, in the experiment with P. falciparum 3D7 [2] (setting [3]), the EC50 was 114 nM.
For `CCN(CC)CCNc1ncnc2c1[nH]c1ccc(Br)cc12` [MMV006545], the EC50 in the experiment with P. falciparum 3D7 [1] was 707 nM; in the experiment on P. falciparum 3D7 [2] (setting [4]), 288 nM.
With `Cc1cc(C)c2c(c1)OCN(Cc1ccccc1Cl)C2` [MMV006558], in the experiment on P. falciparum 3D7 [1], the EC50 was found to be 268 nM and the inhibition of growth at 5 µM worked out at 98%. The EC50 in the experiment on P. falciparum 3D7 [2] (source GNF (GNF-Pf id)) was 192 nM.
Turning to `Clc1ccc2[nH]c3c(NCCCN4CCOCC4)ncnc3c2c1` [MMV006587], the EC50 in the experiment with P. falciparum 3D7 [1] was 700 nM; in the experiment with P. falciparum 3D7 [2] (setting [4]), 109 nM.
On to `CCOC(=O)C1=CN(C)C=C(C(=O)OCC)C1c1cc(Br)c(OCC)c(OC)c1` [MMV006656], for which, in the experiment on P. falciparum 3D7 [1], the EC50 is 518 nM and the inhibition of growth at 5 µM is 97%. The EC50 with P. falciparum 3D7 [2] (setting [3]) is 913 nM.
Take `CN(C)CCNc1cc(-c2ccccc2)nc2ccccc12` [MMV006704]: in the experiment on P. falciparum 3D7 [1], the EC50 was found to be 4000 nM and the inhibition of growth at 2 µM came out at 92%. In addition, in the experiment on P. falciparum 3D7 [2] (setting [4]), the EC50 was 692 nM.
Regarding `Cc1cc(N2CCN(C3CCCC3)CC2)n2c(nc3ccccc32)c1C#N` [MMV006706], the EC50 in the experiment on P. falciparum 3D7 [1] is 683 nM; in the experiment on P. falciparum 3D7 [2] (setting [4]), 743 nM.
Regarding `Cc1cc(=O)oc2c1ccc1oc(C(=O)c3ccccc3)c(C)c12` [MMV006753], in the experiment on P. falciparum 3D7 [1], the inhibition of growth at 5 µM was 94%. Moreover, in the experiment on P. falciparum 3D7 [2] (source GNF (GNF-Pf ids)), the EC50 is 441 nM.
`CCOc1c(Br)cc(C2C(C(=O)OC)=CN(C)C=C2C(=O)OC)cc1OC` [MMV006764]: in the experiment on P. falciparum 3D7 [1], the EC50 is 512 nM and the inhibition of growth at 5 µM amounted to 96%. Besides, in the experiment on P. falciparum 3D7 [2] (source GNF (GNF-Pf ids)), the EC50 is 292 nM.
As to `CC(C)CCNCC(O)Cn1c2ccccc2c2ccccc21` (centres unmarked) [MMV006787], in the experiment on P. falciparum 3D7 [1], the EC50 came out at 473 nM and the inhibition of growth at 5 µM came to 97%. Besides, in the experiment with P. falciparum 3D7 [2] (source GNF (GNF-Pf ids)), the EC50 was 201 nM.
For the compound `CCCCc1c(C)nc2c(OC)cccc2c1O` [MMV006820], in the experiment with P. falciparum 3D7 [1], the EC50 is 4000 nM and the inhibition of growth at 2 µM was found to be 92%. Moreover, the EC50 in the experiment on P. falciparum 3D7 [2] (setting [4]) was 1690 nM.
Turning to `COc1ccc(Nc2cc(C)nc(NCc3ccccc3)n2)cc1` [MMV006825], the EC50 in the experiment on P. falciparum 3D7 [1] is 467 nM; in the experiment with P. falciparum 3D7 [2] (setting [3]) it was 151 nM.
Regarding `c1ccc2cc3c(Nc4ccc(N5CCOCC5)cc4)ccnc3cc2c1` [MMV006861], in the experiment on P. falciparum 3D7 [1], the EC50 came to 251 nM and the inhibition of growth at 5 µM is 97%. Moreover, in the experiment on P. falciparum 3D7 [2] (source GNF (GNF-Pf id)), the EC50 was 672 nM.
For the compound `CCOC(=O)c1cnc2ccc(Cl)cc2c1NCCCN(C)C` [MMV006882], in the experiment on P. falciparum 3D7 [1], the EC50 came to 1190 nM and the inhibition of growth at 5 µM was determined as 98%. The EC50 in the experiment on P. falciparum 3D7 [2] (source GNF (GNF-Pf ids)) is 826 nM.
Regarding `C=CCc1c(C)nc2ccccc2c1O` [MMV006913], in the experiment with P. falciparum 3D7 [1], the EC50 stood at 1290 nM and the inhibition of growth at 5 µM is 85%. The EC50 in the experiment with P. falciparum 3D7 [2] (setting [4]) is 707 nM.
With `Cc1ccc(-c2cc3nc4c(c(O)n3n2)CCCC4)cc1` [MMV006937], in the experiment on P. falciparum 3D7 [1], the EC50 came to 396 nM and the inhibition of growth at 5 µM was determined as 73%. Further, the EC50 in the experiment with P. falciparum 3D7 [2] (source GNF (GNF-Pf id)) is 1600 nM.
As for `O=C(Nc1ccc(-c2nc3cc(NC(=O)c4ccc(Cl)cc4)ccc3[nH]2)cc1)c1ccc(Cl)cc1` [MMV006962], the inhibition at 1.25 µM with P. falciparum 3D7 [1] (3D7, read-out: % inh. At 1.25 uM) came to 48%. Besides, the EC50 in the experiment with P. falciparum 3D7 [2] (setting [3]) was 993 nM.
As for `CCOc1ccc2nc(C)cc(Nc3ccc(N(C)C)cc3)c2c1` [MMV007020], the results for the EC50 with P. falciparum 3D7 [1] and with P. falciparum 3D7 [2] (setting [3]) were 4000 nM and 344 nM, respectively. The inhibition of growth at 2 µM in the experiment on P. falciparum 3D7 [1] is 94%.
`Cc1ccc2c(C)nc(Nc3nc(C)cc(-c4ccccc4)n3)nc2c1` [MMV007041]: in the experiment with P. falciparum 3D7 [1], the EC50 was found to be 4000 nM and the inhibition of growth at 2 µM was determined as 73%. Moreover, in the experiment on P. falciparum 3D7 [2] (setting [3]), the EC50 is 975 nM.
In the case of `CCOc1ccc(CN2CCN(CC(O)COc3ccc(OCC(O)CN4CCN(Cc5ccc(OCC)cc5)CC4)cc3)CC2)cc1` (centres unmarked) [MMV007092], the EC50 in the experiment on P. falciparum 3D7 [1] is 1200 nM; in the experiment on P. falciparum 3D7 [2] (setting [3]) it was 1370 nM. Also, the inhibition of growth at 5 µM in the experiment on P. falciparum 3D7 [1] stood at 97%.
Take `c1ccc(C2=Nc3ccccc3N=C(c3ccccc3)c3ccccc32)cc1` [MMV007113]: in the experiment with P. falciparum 3D7 [1], the EC50 was 662 nM and the inhibition of growth at 5 µM amounted to 99%. Besides, the EC50 in the experiment on P. falciparum 3D7 [2] (setting [3]) was 678 nM.
Regarding `CCOC(=O)c1cnc2ccc(CC)cc2c1O` [MMV007116], the EC50 in the experiment with P. falciparum 3D7 [1] was 351 nM; in the experiment on P. falciparum 3D7 [2] (source GNF (GNF-Pf id)), 716 nM.
